# Data: patent publication US8623832B2, “Peptide compositions that bind TLR-4” (The Board of Regents of the University of Oklahoma, priority 2011, dated 2014)
# Where no end group is shown, it is not given here.
# Assays:
# [1] = system: NF-κB; assay: NF-κB luciferase reporter activity in LPS-challenged SW480 cells; assay type: cell-based, human; conditions: LPS 1.0 μg/ml
# Experimental: NF-κB activity: Since binding of LPS to TLR4 activates NF-κB through MYD88-dependent and independent pathways, the effects of SPA4 peptide on basal and LPS-induced NF-κB activity were investigated in SW480 cells transfected with a dominant negative construct of MYD88 (MYD88DN) and NF-κB firefly-luciferase reporter plasmid DNA. Both the short-(1 hour) and long-term (5 hours) effects of the SPA4 peptide on NF-κB activity were studied.
# The SW480 cells were transiently-transfected with NF-κB firefly-luciferase reporter plasmid pGL4.32 (luc2P/NF-κB-RE/Hygro, Promega, WI; provided by Dr. Kelly Standifer, Department of Pharmaceutical Sciences, University of Oklahoma Health Sciences Center, Oklahoma City, Okla.) and MYD88-dominant negative plasmid construct (MYD88DN, provided by Dr. Ruslan Medzhitov, Yale University, CT). MYD88 dominant negative plasmid DNA construct lacked the death domain and intermediate domain (Medzhitov et al., 1998). Briefly, NF-κB-Luciferase reporter and MYD88-dominant negative plasmids (1.0 μg each) were mixed with 6 μl of Fugene HD reagent (Roche, Ind.) in 92 μl of serum-free low-glucose DMEM medium (Invitrogen, CA), and incubated for 20 minutes at room temperature. The transfection-mix was then added to the SW480 cells. The SW480 cells transfected with a plasmid DNA construct expressing enhanced green fluorescent protein (pHYG-EGFP; Clontech, CA) were observed under Leica DM4000B fluorescent microscope. The transfection efficiency was calculated as percent of cells expressing EGFP over total number of cells in the brightfield channel. […]
# After completion of the incubation period, the medium supernatants were removed and cells were washed with room-temperature DPBS. […] The firefly-luciferase activity (measurement of NF-κB activity) was measured using the luciferase reporter assay system (Promega, Fitchburg, Wis.). Briefly, 50 μl of luciferase assay reagent was added to the 20 μl cell lysate by automated dispenser of Synergy HT multi-mode microplate reader (Biotek, Winooski, Vt.), and luminescence was read within 10 seconds. […]
# [2] = system: JAWS II dendritic cells; assay: LPS-induced TNF-α release by JAWS II dendritic cells (ELISA); assay type: cell-based, mouse; conditions: for LPS-induced TNF-α, mean values: post-LPS model
# Experimental: JAWS II dendritic cell culture: The JAWS II dendritic cell line is an immortalized cell line derived from bone marrow of C57BL/6 mice (ATCC, Manassas, Va.). The cells were maintained in Alpha-modified minimum essential medium (Sigma, St Louis, Mo.) supplemented with 20% fetal bovine serum (FBS), 4 mM L-glutamine, 100 U/ml penicillin, 100 μg/ml streptomycin, 50 μg/ml gentamicin (Invitrogen, Grand Island, N.Y.) and 5 ng/ml of recombinant murine granulocyte macrophage-colony stimulating factor (Peprotech, Rocky Hill, N.J.). (Awasthi et al., 2005). The culture medium was replaced with fresh medium every 48 h.
# The JAWS II dendritic cells (1 million) were treated with SP-A peptides (1 or 10 μM) with or without E. coli derived LPS (75 ng/ml, highly purified, low protein, Calbiochem, CA). In order to observe the anti-inflammatory properties of the SP-A peptides, the cells were treated with peptides for 1 hour prior to addition of LPS (pre-LPS treatment) or after 4 hours incubation with LPS (Post-LPS treatment). The incubation was continued for a total period of 5 hours. Control cells were treated with vehicle, LPS (75 ng/ml), and/or SP-A peptides (1 and 10 μM) for a period of 5 hours. The cell-free supernatants were collected and stored at −80° C. for further analysis.
# Cytokine (TNF-α) measurement: The TNF-α levels were measured in cell-free supernatants of JAWS II dendritic cells treated with LPS with or without SP-A peptides by enzyme linked immunosorbent assay (ELISA) as described earlier (Awasthi and Cox, 2003).
sequence,measurement,setting,value
"GDFRYSDGTPVNYTNWYRGE [SPA4, GDFRYSDGT PVNYTNWYRGE]",LPS induced NF-κB activity at 9 hours,"[1]; SPA4 1, 10 or 50 μM, long-term",not significantly inhibited
same,LPS induced-NF-κB activity after 5 hours,"[1]; SPA4 10 and 50 μM, short-term",reduces
same,NF-κB activity in cells transfected with dominant negative construct of MYD88,[1]; MYD88DN,did not further reduce
same,"secretion of TNF-α, post-LPS model","[2]; peptide added after 4 hours LPS 75 ng/ml, both 1 and 10 μM",inhibited the secretion of TNF-α
same,"LPS-induced TNF-α, mean values",[2]; 1 μM peptide,6448 pg/mL
same,"LPS-induced TNF-α, mean values",[2]; 10 μM peptide,6101 pg/mL
